Reference: ChEMBL document CHEMBL6078713, “Synthesis and mechanistic studies of 4-aminoquinoline-Isatin molecular hybrids and Schiff's bases as promising antimicrobial agents” (Eur J Med Chem, 2025)
≈ marks a conversion by molar mass, not a printed value. Calls of active or inactive are those of the source. The calls are words filed in the database; no cut-off is given here.

Assays:
[1] = system: Escherichia coli; assay: Antibacterial activity against Escherichia coli MTCC 443 assessed as diameter of zone of inhibition at 500 ug/ml by agar disk diffusion method; format: functional; settings: read-out: DIZ
[2] = system: Enterococcus faecalis; assay: Antibacterial activity against Enterococcus faecalis MTCC 439 assessed as diameter of zone of inhibition at 500 ug/ml by agar disk diffusion method; format: functional; settings: read-out: DIZ
[3] = system: Bacillus subtilis; assay: Antibacterial activity against Bacillus subtilis MTCC 736 assessed as diameter of zone of inhibition at 500 ug/ml by agar disk diffusion method; format: functional; settings: read-out: DIZ
[4] = system: Staphylococcus aureus; assay: Antibacterial activity against Staphylococcus aureus MTCC 902 assessed as diameter of zone of inhibition at 500 ug/ml by agar disk diffusion method; format: functional; settings: read-out: DIZ
[5] = system: Pseudomonas aeruginosa; assay: Antibacterial activity against Pseudomonas aeruginosa MTCC 2453 assessed as diameter of zone of inhibition at 500 ug/ml by agar disk diffusion method; format: functional; settings: read-out: DIZ
[6] = system: Salmonella typhi; assay: Antibacterial activity against Salmonella typhi assessed as diameter of zone of inhibition at 500 ug/ml by agar disk diffusion method; format: functional, Salmonella enterica subsp. enterica serovar Typhi; settings: Salmonella enterica, read-out: DIZ
[7] = system: Escherichia coli; assay: Antibacterial activity against Escherichia coli MTCC 443 assessed as inhibition of bacterial growth incubated overnight by serial dilution based spectrophotometer; format: functional
[8] = system: Enterococcus faecalis; assay: Antibacterial activity against Enterococcus faecalis MTCC 439 assessed as inhibition of bacterial growth incubated overnight by serial dilution based spectrophotometer; format: functional
[9] = system: Bacillus subtilis; assay: Antibacterial activity against Bacillus subtilis MTCC 736 assessed as inhibition of bacterial growth incubated overnight by serial dilution based spectrophotometer; format: functional
[10] = system: Staphylococcus aureus; assay: Antibacterial activity against Staphylococcus aureus MTCC 902 assessed as inhibition of bacterial growth incubated overnight by serial dilution based spectrophotometer; format: functional
[11] = system: Pseudomonas aeruginosa; assay: Antibacterial activity against Pseudomonas aeruginosa MTCC 2453 assessed as inhibition of bacterial growth incubated overnight by serial dilution based spectrophotometer; format: functional
[12] = system: Salmonella typhi; assay: Antibacterial activity against Salmonella typhi assessed as inhibition of bacterial growth incubated overnight by serial dilution based spectrophotometer; format: functional, Salmonella enterica subsp. enterica serovar Typhi; settings: Salmonella enterica
[13] = system: Escherichia coli; assay: Bactericidal activity against Escherichia coli MTCC 443 assessed as inhibition of bacterial growth incubated overnight; format: functional
[14] = system: Enterococcus faecalis; assay: Bactericidal activity against Enterococcus faecalis MTCC 439 assessed as inhibition of bacterial growth incubated overnight; format: functional
[15] = system: Bacillus subtilis; assay: Bactericidal activity against Bacillus subtilis MTCC 736 assessed as inhibition of bacterial growth incubated overnight; format: functional
[16] = system: Staphylococcus aureus; assay: Bactericidal activity against Staphylococcus aureus MTCC 902 assessed as inhibition of bacterial growth incubated overnight; format: functional
[17] = system: Pseudomonas aeruginosa; assay: Bactericidal activity against Pseudomonas aeruginosa MTCC 2453 assessed as inhibition of bacterial growth incubated overnight; format: functional
[18] = system: Salmonella typhi; assay: Bactericidal activity against Salmonella typhi assessed as inhibition of bacterial growth incubated overnight; format: functional, Salmonella enterica subsp. enterica serovar Typhi; settings: Salmonella enterica
[19] = system: Escherichia coli; assay: Ratio of MBC for antibacterial activity against Escherichia coli MTCC 443 to MIC for bactericidal activity against Escherichia coli MTCC 443; format: functional
[20] = system: Bacillus subtilis; assay: Ratio of MBC for antibacterial activity against Bacillus subtilis MTCC 736 to MIC for bactericidal activity against Bacillus subtilis MTCC 736; format: functional
[21] = system: Pseudomonas aeruginosa; assay: Ratio of MBC for antibacterial activity against Pseudomonas aeruginosa MTCC 2453 to MIC for bactericidal activity against Pseudomonas aeruginosa MTCC 2453; format: functional
[22] = system: Salmonella typhi; assay: Ratio of MBC for antibacterial activity against Salmonella typhi to MIC for bactericidal activity against Salmonella typhi; format: functional, Salmonella enterica subsp. enterica serovar Typhi
[23] = system: Enterococcus faecalis; assay: Antibacterial activity against Enterococcus faecalis MTCC 439 assessed as diameter of zone of inhibition at 0.5 times MIC incubated overnight by disk diffusion method; format: functional
[24] = system: Bacillus subtilis; assay: Antibacterial activity against Bacillus subtilis MTCC 736 assessed as diameter of zone of inhibition at 0.5 times MIC incubated overnight by disk diffusion method; format: functional
[25] = system: Salmonella typhi; assay: Antibacterial activity against Salmonella typhi assessed as diameter of zone of inhibition at 0.5 times MIC incubated overnight by disk diffusion method; format: functional, Salmonella enterica subsp. enterica serovar Typhi
[26] = system: Escherichia coli; assay: Antibacterial activity against Escherichia coli MTCC 443 assessed as diameter of zone of inhibition at MIC incubated overnight by disk diffusion method; format: functional
[27] = system: Enterococcus faecalis; assay: Antibacterial activity against Enterococcus faecalis MTCC 439 assessed as diameter of zone of inhibition at MIC incubated overnight by disk diffusion method; format: functional
[28] = system: Bacillus subtilis; assay: Antibacterial activity against Bacillus subtilis MTCC 736 assessed as diameter of zone of inhibition at MIC incubated overnight by disk diffusion method; format: functional
[29] = system: Staphylococcus aureus; assay: Antibacterial activity against Staphylococcus aureus MTCC 902 assessed as diameter of zone of inhibition at MIC incubated overnight by disk diffusion method; format: functional
[30] = system: Pseudomonas aeruginosa; assay: Antibacterial activity against Pseudomonas aeruginosa MTCC 2453 assessed as diameter of zone of inhibition at MIC incubated overnight by disk diffusion method; format: functional
[31] = system: Salmonella typhi; assay: Antibacterial activity against Salmonella typhi assessed as diameter of zone of inhibition at MIC incubated overnight by disk diffusion method; format: functional, Salmonella enterica subsp. enterica serovar Typhi
[32] = system: Escherichia coli; assay: Antibacterial activity against Escherichia coli MTCC 443 assessed as diameter of zone of inhibition at 2 times MIC incubated overnight by disk diffusion method; format: functional
[33] = system: Enterococcus faecalis; assay: Antibacterial activity against Enterococcus faecalis MTCC 439 assessed as diameter of zone of inhibition at 2 times MIC incubated overnight by disk diffusion method; format: functional
[34] = system: Bacillus subtilis; assay: Antibacterial activity against Bacillus subtilis MTCC 736 assessed as diameter of zone of inhibition at 2 times MIC incubated overnight by disk diffusion method; format: functional
[35] = system: Staphylococcus aureus; assay: Antibacterial activity against Staphylococcus aureus MTCC 902 assessed as diameter of zone of inhibition at 2 times MIC incubated overnight by disk diffusion method; format: functional
[36] = system: Pseudomonas aeruginosa; assay: Antibacterial activity against Pseudomonas aeruginosa MTCC 2453 assessed as diameter of zone of inhibition at 2 times MIC incubated overnight by disk diffusion method; format: functional
[37] = system: Salmonella typhi; assay: Antibacterial activity against Salmonella typhi assessed as diameter of zone of inhibition at 2 times MIC incubated overnight by disk diffusion method; format: functional, Salmonella enterica subsp. enterica serovar Typhi
[38] = system: Escherichia coli; assay: Synergistic antibacterial activity against Escherichia coli MTCC 443 assessed as inhibition of bacterial growth incubated overnight in presence of ciprofloxacin by serial dilution based spectrophotometer; format: functional
[39] = system: Enterococcus faecalis; assay: Synergistic antibacterial activity against Enterococcus faecalis MTCC 439 assessed as inhibition of bacterial growth incubated overnight in presence of ciprofloxacin by serial dilution based spectrophotometer; format: functional
[40] = system: Bacillus subtilis; assay: Synergistic antibacterial activity against Bacillus subtilis MTCC 736 assessed as inhibition of bacterial growth incubated overnight in presence of ciprofloxacin by serial dilution based spectrophotometer; format: functional
[41] = system: Staphylococcus aureus; assay: Synergistic antibacterial activity against Staphylococcus aureus MTCC 902 assessed as inhibition of bacterial growth incubated overnight in presence of ciprofloxacin by serial dilution based spectrophotometer; format: functional
[42] = system: Pseudomonas aeruginosa; assay: Synergistic antibacterial activity against Pseudomonas aeruginosa MTCC 2453 assessed as inhibition of bacterial growth incubated overnight in presence of ciprofloxacin by serial dilution based spectrophotometer; format: functional
[43] = system: Salmonella typhi; assay: Synergistic antibacterial activity against Salmonella typhi assessed as inhibition of bacterial growth incubated overnight in presence of ciprofloxacin by serial dilution based spectrophotometer; format: functional, Salmonella enterica subsp. enterica serovar Typhi; settings: Salmonella enterica
[44] = system: Escherichia coli; assay: Synergistic antibacterial activity against Escherichia coli MTCC 443 assessed as fractional inhibitory concentration index incubated overnight in presence of ciprofloxacin by microdilution checkerboard assay; format: functional
[45] = system: Enterococcus faecalis; assay: Synergistic antibacterial activity against Enterococcus faecalis MTCC 439 assessed as fractional inhibitory concentration index incubated overnight in presence of ciprofloxacin by microdilution checkerboard assay; format: functional
[46] = system: Bacillus subtilis; assay: Synergistic antibacterial activity against Bacillus subtilis MTCC 736 assessed as fractional inhibitory concentration index incubated overnight in presence of ciprofloxacin by microdilution checkerboard assay; format: functional
[47] = system: Staphylococcus aureus; assay: Synergistic antibacterial activity against Staphylococcus aureus MTCC 902 assessed as fractional inhibitory concentration index incubated overnight in presence of ciprofloxacin by microdilution checkerboard assay; format: functional
[48] = system: Pseudomonas aeruginosa; assay: Synergistic antibacterial activity against Pseudomonas aeruginosa MTCC 2453 assessed as fractional inhibitory concentration index incubated overnight in presence of ciprofloxacin by microdilution checkerboard assay; format: functional
[49] = system: Salmonella typhi; assay: Synergistic antibacterial activity against Salmonella typhi assessed as fractional inhibitory concentration index incubated overnight in presence of ciprofloxacin by microdilution checkerboard assay; format: functional, Salmonella enterica subsp. enterica serovar Typhi
[50] = system: Escherichia coli; assay: Bacteriostatic activity against Escherichia coli MTCC 443 assessed as reduction in bacterial growth at 2 times MIC measured upto 24 hrs by absorbance based assay; format: functional, organism-based
[51] = system: Staphylococcus aureus; assay: Bacteriostatic activity against Staphylococcus aureus MTCC 902 assessed as reduction in bacterial growth at 2 times MIC measured upto 24 hrs by absorbance based assay; format: functional, organism-based
[52] = system: Enterococcus faecalis; assay: Antibacterial activity against Enterococcus faecalis MTCC 439 assessed as inhibition of bacterial growth at 200 ug/ml incubated overnight by spectrophotometry relative to control; format: functional
[53] = system: Bacillus subtilis; assay: Antibacterial activity against Bacillus subtilis MTCC 736 assessed as inhibition of bacterial growth at 200 ug/ml incubated overnight by spectrophotometry relative to control; format: functional
[54] = system: Pseudomonas aeruginosa; assay: Antibacterial activity against Pseudomonas aeruginosa MTCC 2453 assessed as inhibition of bacterial growth at 200 ug/ml incubated overnight by spectrophotometry relative to control; format: functional
[55] = system: Staphylococcus aureus; assay: Antibacterial activity against Staphylococcus aureus assessed as inhibition of bacterial growth; format: functional

Fc1ccc(/C=N/CCNc2ccnc3cc(Cl)ccc23)cc1
zone of inhibition at 500 µg/mL [1]: 8 mm | zone of inhibition at 500 µg/mL [2]: 10 mm | zone of inhibition at 500 µg/mL [3]: 10 mm | zone of inhibition at 500 µg/mL [4]: 9 mm | zone of inhibition at 500 µg/mL [5]: 7 mm | zone of inhibition at 500 µg/mL [6]: 11 mm | MIC [7]: 512 µg/mL (≈ 1560 µM) | MIC [8]: 256 µg/mL (≈ 781 µM) | MIC [9]: 256 µg/mL (≈ 781 µM) | MIC [10]: 256 µg/mL (≈ 781 µM) | MIC [11]: 512 µg/mL (≈ 1560 µM) | MIC [12]: 128 µg/mL (≈ 390 µM) | MBC [13]: 512 µg/mL (≈ 1560 µM) | MBC [14]: > 512 µg/mL | MBC [15]: 256 µg/mL (≈ 781 µM) | MBC [16]: > 512 µg/mL | MBC [17]: 512 µg/mL (≈ 1560 µM) | MBC [18]: 128 µg/mL (≈ 390 µM) | Ratio [19]: 1 | Ratio [20]: 1 | Ratio [21]: 1 | Ratio [22]: 1 | diameter of the inhibition zone (DIZ) [23]: 7 mm | diameter of the inhibition zone (DIZ) [24]: 9 mm | diameter of the inhibition zone (DIZ) [25]: 10 mm | diameter of the inhibition zone (DIZ) [26]: 10 mm | diameter of the inhibition zone (DIZ) [27]: 7 mm | diameter of the inhibition zone (DIZ) [28]: 9 mm | diameter of the inhibition zone (DIZ) [29]: 8 mm | diameter of the inhibition zone (DIZ) [30]: 8 mm | diameter of the inhibition zone (DIZ) [31]: 10 mm | diameter of the inhibition zone (DIZ) [32]: 13 mm | diameter of the inhibition zone (DIZ) [33]: 7 mm | diameter of the inhibition zone (DIZ) [34]: 13 mm | diameter of the inhibition zone (DIZ) [35]: 10 mm | diameter of the inhibition zone (DIZ) [36]: 9 mm | diameter of the inhibition zone (DIZ) [37]: 11 mm | MIC [38]: 64 µg/mL | MIC [39]: 128 µg/mL | MIC [40]: 256 µg/mL | MIC [41]: 32 µg/mL | MIC [42]: 256 µg/mL | MIC [43]: 16 µg/mL | fractional inhibitory concentration index (FICI) [44]: 0.37 | fractional inhibitory concentration index (FICI) [45]: 1.5 | fractional inhibitory concentration index (FICI) [46]: 2 | fractional inhibitory concentration index (FICI) [47]: 1.12 | fractional inhibitory concentration index (FICI) [48]: 1.5 | fractional inhibitory concentration index (FICI) [49]: 0.187 | Activity [50]: Active | Activity [51]: Active | inhibition at 200 µg/mL [52]: 100% | inhibition at 200 µg/mL [53]: 100% | inhibition at 200 µg/mL [54]: 100%

CC(NC1=NC(c2cc3cc(OCc4cccc(Cl)c4)ccc3nc2O)N=CN1)c1ccccc1 (stereo not given)
MIC [55]: 2 µg/mL (≈ 4.12 µM)
